Measured values taken from US10927097B2, “Indole compound as inhibitor of necrosis” (LG CHEM, LTD., priority 2013, dated 2021).
pEC50: −log10 of the molar value.

System: primary hepatocytes isolated from rats
Assay: Hepatocyte protective effect against doxorubicin treatment (cell viability, WST-1)
Format: cell-based
Details: Hepatocyte, primary rat hepatocytes pretreated with compound for 30 min, viability by WST-1 after 24-48 hours
Protocol: Various endogenous/exogenous attacks on cells trigger the mechanisms of cell death which is broadly classified into two types—i.e., apoptosis or necrosis. Using these cell death mechanisms, in the present experimental example, primary hepatocytes isolated from rats were treated with drugs which were clinically shown to result in serious side-effects of hepatocyte toxicity or various chemicals which derive cell death, and the compounds synthesized in the Examples were estimated for their hepatocyte protective effects, after 24-48 hours. The substances used to cause hepatocyte death include CCl4, ActD, H2O2, doxorubicin, anti-Fas Ab/Actinomycin D, acetaminophen, EtOH, CdCl2, palmitate, stearate, cyclophosphamide, terfenadine, diclofenac, simvastatin, and adefovir. Primary hepatocytes were isolated using the method of Seglen P O (Experimental Cell Research 74 (1972), pp. 450-454). Briefly, hepatocytes were isolated according to the two-step collagenase perfusion method, and dead cells were removed by low speed (500 rpm) centrifugation for 10 min using percoll gradient (Kreamer B L et al., In Vitro Cellular & Developmental Biology 22 (1986), pp. 201-211). During this step, the viability of cells was maintained 90% or above. The cells were suspended in HepatoZYME media (Gibco BRL), and the number of cells was counted. 1.5×10^4 cells in 100 μl were placed into the collagen-coated 96-well plate (BD Biocoat), and adhered on the bottom for 3-4 hours.
In order to assess the hepatocyte protective effect, the above adhered cells were pretreated with the Example compounds for 30 min. At this time, the concentration of the Example compounds was serially diluted by 2-fold or 3-fold over 5 steps starting from 30 μM, 10 μM or 1 μM depending on the experiments, and the final concentration of DMSO was adjusted to 0.2%. 30 min after the treatment by the compounds, the cells were treated by the substances causing hepatocyte death or hepatotoxic drugs at the concentrations indicated in Table 1. After 24-48 hours, the viability of cells was determined to estimate the hepatocyte protective effect. The viability of cells was determined using the WST-1 (MK-400, Takeda) method by the absorbance at 440 nm. Hepatocyte protective effects of the Example compounds were represented by “EC50” which was calculated from measured values. “EC50” herein means the concentration of the compound at which 50% of maximum protective effect is observed in the experiment.

In order of rising pEC50:
1. O=C1CN(CCc2cc3cc(Cl)cc(NCC4CCOCC4)c3[nH]2)CCN1 [Example 22, 4-(2-{5-Chloro-7-[(tetrahydropyran-4-ylmethyl)-amino]-1H-indol-2-yl}-ethyl)-piperazin-2-one]  6.05
2. Cc1cc(NCC2CCOCC2)c2[nH]c(CN3CCS(=O)(=O)CC3)cc2c1 [Example 7, [2-(1,1-Dioxothiomorpholin-4-ylmethyl)-5-methyl-1H-indol-7-yl]-(tetrahydropyran-4-ylmethyl)-amine]  6.36
3. O=C1CN(CCc2cc3cc(Cl)cc(NCc4ccccc4)c3[nH]2)CCN1 [Example 14, 4-[2-(7-Benzylamino-5-chloro-1H-indol-2-yl)-ethyl]-piperazin-2-one]  6.52
4. CC(=O)N1CCC(Nc2cc(Cl)cc3cc(CCN4CCNC(=O)C4)[nH]c23)CC1 [Example 3, 4-{2-[7-(1-Acetyl-piperidin-4-ylamino)-5-chloro-1H-indol-2-yl]-ethyl}-piperazin-2-one]  6.57
5. O=S1(=O)CCN(CCc2cc3cc(Cl)cc(NC4CCCC4)c3[nH]2)CC1 [Example 19, {5-Chloro-2-[2-(1,1-dioxothiomorpholin-4-yl)-ethyl]-1H-indol-7-yl}-cyclopentyl-amine]  6.57
6. Cc1cc(NC2CCCC2)c2[nH]c(CN3CCS(=O)(=O)CC3)cc2c1 [Example 8, Cyclopentyl-[2-(1,1-dioxothiomorpholin-4-ylmethyl)-5-methyl-1H-indol-7-yl]-amine]  6.62
7. Clc1cc(NC2CCCC2)c2[nH]c(C3CCNCC3)cc2c1 [Example 48, (5-Chloro-2-piperidin-4-yl-1H-indol-7-yl)-cyclopentyl-amine]  6.68
8. O=C1CN(Cc2cc3cc(Cl)cc(NC4CCCC4)c3[nH]2)CCN1 [Example 1, 4-(5-Chloro-7-cyclopentylamino-1H-indol-2-ylmethyl)-piperazin-2-one]  6.80

Same assay, conditions: primary rat hepatocytes pretreated with compound for 30 min, viability by WST-1 after 24-48 hours

In order of falling pEC50:
1. O=S1(=O)CCN(CCc2cc3cc(Cl)cc(NC4CCOCC4)c3[nH]2)CC1 [Example 18]  6.62
2. 4-[5-Methyl-7-(tetrahydropyran-4-ylmethylamino)-1H-indol-2-ylmethyl)-piperazin-2-one [Example 9]  6.60
3. CS(=O)(=O)N1CCC(Nc2cc(Cl)cc3cc(CCN4CCn5c(nnc5C(F)(F)F)C4)[nH]c23)CC1 [Example 12]  6.22
4. 1-(4-{5-Chloro-2-[2-(3-trifluoromethyl-5,6,7,8-tetrahydro-[1,2,4]triazolo[4,3-a]pyrazin-1-yl)-ethyl]-1H-indol-7-yl}-piperidin-1-yl)-ethanone [Example 13]  5.74
